Publication PMC10508830 (Antiviral research, 2023)

Target: NA of A/Alabama/03/2020 A(H1N1)pdm09 (H275Y) (Influenza A virus, UniProt A0A0X9QTS2, H275Y)
Assay type: biochemical
Conditions: for IC50: read-out: Mean IC50 ± SD

Row | Substance | IC50 [nM] | IC50 fold-change
1 | oseltamivir carboxylate | 230 | 
2 | peramivir | 15.2 | 15.25 ± 2.11 (254) fold
